Measurements reported in ChEMBL document CHEMBL1124997, “Mechanism and inhibition of cytochrome P-450 aromatase” (J Med Chem, 1990).

B1: Aromatase (Homo sapiens) (protein)
chain: MVLEMLNPIHYNITSIVPEAMPAATMPVLLLTGLFLLVWNYEGTSSIPGPGYCMGIGPLISHGRFLWMGIGSACNYYNRVYGEFMRVWISGEETLIISKSSSMFHIMKHNHYSSRFGSKLGLQCIGMHEKGIIFNNNPELWKTTRPFFMKALSGPGLVRMVTVCAESLKTHLDRLEEVTNESGYVDVLTLLRRVMLDTSNTLFLRIPLDESAIVVKIQGYFDAWQALLIKPDIFFKISWLYKKYEKSVKDLKDAIEVLIAEKRRRISTEEKLEECMDFATELILAEKRGDLTRENVNQCILEMLIAAPDTMSVSLFFMLFLIAKHPNVEEAIIKEIQTVIGERDIKIDDIQKLKVMENFIYESMRYQPVVDLVMRKALEDDVIDGYPVKKGTNIILNIGRMHRLEFFPKPNEFTLENFAKNVPYRYFQPFGFGPRGCAGKYIAMVMMKAILVTLLRRFHVKTLQGQCVESIQKIHDLSLHPDETKNMLEMIFTPRNSDRCLEH

target: T1, Aromatase (Homo sapiens, UniProt P11511); test: (§1) Binding affinity for Cytochrome P450 19A1
T1 sequence (P11511 whole entry): B1 chain

Row | Molecule | IC50 [nM]
1 | C[C@]12CCC3C(CCC4=C(O)C(=O)CC[C@@]43C(F)F)C1CCC2=O (stereo partly specified) | 3300
2 | Clc1ccc(COC(Cn2cccc2)c2ccc(Cl)cc2Cl)cc1 (stereo unspecified) | 30

target: T2, Aromatase (Rattus norvegicus, UniProt P22443); test: as §1
T2 sequence (P22443 whole entry): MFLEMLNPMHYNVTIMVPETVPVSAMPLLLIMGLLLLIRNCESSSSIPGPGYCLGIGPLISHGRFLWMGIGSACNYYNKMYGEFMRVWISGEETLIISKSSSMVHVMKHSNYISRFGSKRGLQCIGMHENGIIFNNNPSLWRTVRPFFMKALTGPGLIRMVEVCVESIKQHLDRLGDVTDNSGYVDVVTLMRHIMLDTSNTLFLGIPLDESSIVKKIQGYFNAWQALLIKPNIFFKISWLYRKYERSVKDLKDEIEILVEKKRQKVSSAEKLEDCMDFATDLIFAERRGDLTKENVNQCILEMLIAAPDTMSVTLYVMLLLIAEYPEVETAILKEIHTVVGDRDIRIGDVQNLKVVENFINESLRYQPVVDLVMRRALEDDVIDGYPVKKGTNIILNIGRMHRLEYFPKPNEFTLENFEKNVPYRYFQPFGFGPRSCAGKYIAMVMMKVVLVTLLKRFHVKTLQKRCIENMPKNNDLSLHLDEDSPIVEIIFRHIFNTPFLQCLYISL

Row | Molecule | Ki [nM]
3 | Clc1ccc(C2c3ccc(Cl)cc3-c3ncncc32)cc1 (stereo unspecified) | 24

target: T1, Aromatase

Row | Molecule | Ki [nM]
4 | C[C@]12C=CC(=O)C=C1C=C[C@@H]1[C@@H]2CC[C@]2(C)C(=O)CC[C@@H]12 | 180
5 | C=C1C=C2CCC3C(CC[C@]4(C)C(=O)CCC34)[C@@]2(C)CC1 (stereo partly specified) | 4.7
6 | O=c1cc(-c2ccccc2)oc2c1ccc1ccc(O)cc12 | 5
7 | C[C@]12CCC(=O)C=C1[C@H](Br)CC1C2CC[C@@]2(C)C1CC[C@@H]2OC(=O)CBr (stereo partly specified) | 25000
8 | C[C@]12CCC(=O)C(O)=C1CC[C@@H]1[C@@H]2CC[C@]2(C)C(=O)CC[C@@H]12 [FORMESTANE] | 50
9 | C[C@@]12CCCC1C1CCC3=CC(=O)C=C[C@]3(C)C1CC2 (stereo partly specified) | 1100
10 | C[C@]12CCC3C(CCC4=CC(=O)CC[C@@]43C(F)F)C1CCC2=O (stereo partly specified) | 1
11 | CSC[C@]12CCC(=O)C=C1CCC1C2CC[C@]2(C)C(=O)CCC12 (stereo partly specified) | 1
12 | C[C@]12CCC(=O)C=C1C[C@@H](Sc1ccc(I)cc1)C1C2CC[C@]2(C)C(=O)CCC12 (stereo partly specified) | 12
13 | C[C@]12CCC(=O)C=C1C[C@@H](Sc1ccc(NC(=O)CBr)cc1)C1C2CC[C@]2(C)C(=O)CCC12 (stereo partly specified) | 33000
14 | C/C=C/[C@]12CCC(=O)C=C1CCC1C2CC[C@]2(C)C(=O)CCC12 (stereo partly specified) | 56
15 | C[C@]12C=CC(=O)C=C1CCC1C2CC[C@]2(C)OC(=O)CCC12 (stereo partly specified) | 35000
16 | CC[C@]12CCC(=O)C=C1CCC1C2CC[C@]2(C)C(=O)CCC12 (stereo partly specified) | 9
17 | CCC[C@]12CCC(=O)C=C1CCC1C2CC[C@]2(C)C(=O)CCC12 (stereo partly specified) | 3000
18 | CC1(C)C[C@@]2(C)C(=CC1=O)CCC1C2CC[C@]2(C)C(=O)CCC12 (stereo partly specified) | 2.3
19 | C[C@]12CCC(=O)C(N)=C1CCC1C2CC[C@]2(C)C(=O)CCC12 (stereo partly specified) | 37
20 | C[C@]12CCC3C(CCC4=CC(=O)CC[C@@]43C3CS3)C1CCC2=O (stereo partly specified) | 75
21 | C=C[C@]12CCC(=O)C=C1CCC1C2CC[C@]2(C)C(=O)CCC12 (stereo partly specified) | 3
22 | C[C@]12CCC3C(CCC4=CC(=O)CC[C@]43C3CS3)C1CCC2=O (stereo partly specified) | 1

target: T1, Aromatase; test: Time-dependent irreversible inactivation of human placental Cytochrome P450 19A1

Row | Molecule | kinact [s⁻¹]
23 | C[C@]12CCC(=O)C=C1[C@H](Br)CC1C2CC[C@@]2(C)C1CC[C@@H]2OC(=O)CBr (stereo partly specified) | 0.000457
24 | C[C@]12CCC3C(CCC4=CC(=O)CC[C@@]43C(F)F)C1CCC2=O (stereo partly specified) | 0.000383
25 | C[C@]12CCC(=O)C=C1C[C@@H](Sc1ccc(NC(=O)CBr)cc1)C1C2CC[C@]2(C)C(=O)CCC12 (stereo partly specified) | 0.00247
26 | C[C@]12CCC(=O)C=C1C[C@@H](Sc1ccc(N=[N+]=[N-])cc1)C1C2CC[C@]2(C)C(=O)CCC12 (stereo partly specified) | 0.00166

target: T2, Aromatase

Row | Molecule | IC50 [nM]
27 | Cn1nnc2ccc(C(c3ccc(Cl)cc3)n3cncn3)cc21 (stereo not drawn) [rac-VOROZOLE] | 3

substrate: C[C@]12CCC(=O)C=C1CCC1C2CC[C@@]2(C)C1C[C@@H](O)[C@@H]2O; test: as §1; parameters: species or system Homo sapiens

Row | Molecule | Km [µM]
28 | B1 | 58

substrate: C[C@]12CCC(=O)C=C1CC[C@@H]1[C@@H]2CC[C@]2(C)C(=O)CC[C@@H]12; test: as §1; parameters: species or system Homo sapiens

Row | Molecule | Km [µM]
29 | B1 | 0.03

substrate: C[C@]12CCC(=O)C=C1CC[C@@H]1[C@@H]2CC[C@]2(C)C(=O)CC[C@@H]12; test: (§2) Km for Cytochrome P450 19A1

Row | Molecule | Km [µM]
30 | B1 | 0.06

substrate: C[C@]12CC[C@H]3[C@@H](CCC4=CC(=O)CC[C@@]43C)[C@@H]1CC[C@@H]2O; test: as §2

Row | Molecule | Km [µM]
31 | B1 | 0.21
